Results reported in patent US20250179061A1 (SIRONAX LTD., priority 2022, published 2025).

Each compound was assayed on HT-29 cells (assay: HT-29 necroptosis cell viability assay (TNF-α/SMAC mimetic/zVAD-FMK, CellTiter-Glo)). Conditions: Homo sapiens, HT-29, HT-29 cells, necroptosis induced by TNF-α/SMAC mimetic/zVAD-FMK, CellTiter-Glo; read-out: Activity (IC50 class).
Assay type: cell-based
Procedure, shortened: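 HT-29 cells (~5,000/well, overnight) in FBS-free McCoy's 5A with TNF-α 10 ng/ml, SMAC mimetic 6 μM and zVAD-FMK 10 μM plus 10-point 1:3 compound titration, 20 h at 37°C. ATP measured by CellTiter-Glo luminescence; IC50 as geometric mean of duplicates.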

Compound	IC50
Cc1nc(Br)nn1Cc1ccc(-n2ncn(Cc3c(F)cccc3F)c2=O)cc1 [Example 663, 2-(4-((3-bromo-5-methyl-1H-1,2,4-triazol-1-yl)methyl)phenyl)-4-(2,6-difluorobenzyl)-2,4-dihydro-3H-1,2,4-triazol-3-one]	0.1 to 1 µM
N#CC1CC(n2cccc(Cc3ccc(-n4ncn(Cc5c(F)cccc5F)c4=O)cc3)c2=O)C1 (stereo not shown) [Example 682, 3-(3-(4-(4-(2,6-difluorobenzyl)-5-oxo-4,5-dihydro-1H-1,2,4-triazol-1-yl)benzyl)-2-oxopyridin-1(2H)-yl)cyclobutane-1-carbonitrile]	0.1 to 1 µM
Nc1nc(COc2ccc(-n3ncn(Cc4c(F)cccc4F)c3=O)cc2F)cs1 [Example 659, 2-(4-((2-aminothiazol-4-yl)methoxy)-3-fluorophenyl)-4-(2,6-difluorobenzyl)-2,4-dihydro-3H-1,2,4-triazol-3-one]	0.1 to 1 µM

Same assay, conditions: Homo sapiens, HT-29, HT-29 necroptosis cell viability assay; class symbols for IC50; read-out: Activity

Compound	IC50
Cc1nc(C(N)=O)sc1Oc1ccc(-n2ncn(Cc3ncccc3Cl)c2=O)cc1F [Example 590, 5-(4-(4-((3-chloropyridin-2-yl)methyl)-5-oxo-4,5-dihydro-1H-1,2,4-triazol-1-yl)-2-fluorophenoxy)-4-methylthiazole-2-carboxamide]	< 0.1 µM
Cc1c(N2CC(C)(NC(=O)OC(C)(C)C)C2)ncn1Cc1ccc(-n2ncn(Cc3c(F)cccc3F)c2=O)cc1 [Example 538, tert-butyl (1-(1-(4-(4-(2,6-difluorobenzyl)-5-oxo-4,5-dihydro-1H-1,2,4-triazol-1-yl)benzyl)-5-methyl-1H-imidazol-4-yl)-3-methylazetidin-3-yl)carbamate]	< 0.1 µM
COC1(C)CN(c2cc(Oc3ccc(-n4ncn(Cc5c(F)cccc5F)c4=O)cc3Cl)c(F)cn2)C1 [Example 496, 2-(3-chloro-4-((5-fluoro-2-(3-methoxy-3-methylazetidin-1-yl)pyridin-4-yl)oxy)phenyl)-4-(2,6-difluorobenzyl)-2,4-dihydro-3H-1,2,4-triazol-3-one]	< 0.1 µM
Cc1nc(C(C)(C)O)c(C)n1Cc1ccc(-n2ncn(Cc3c(F)cccc3F)c2=O)cc1F [Example 135, 4-(2,6-difluorobenzyl)-2-(3-fluoro-4-((4-(2-hydroxypropan-2-yl)-2,5-dimethyl-1H-imidazol-1-yl)methyl)phenyl)-2,4-dihydro-3H-1,2,4-triazol-3-one]	1 to 10 µM
COC(=O)c1ncsc1Nc1ccc(-n2ncn(Cc3c(F)cccc3F)c2=O)cc1 [Example 171, methyl 5-((4-(4-(2,6-difluorobenzyl)-5-oxo-4,5-dihydro-1H-1,2,4-triazol-1-yl)phenyl)amino)thiazole-4-carboxylate]	1 to 10 µM
Cc1nn(CCO)c(C)c1Oc1ccc(-n2ncn(Cc3c(F)cccc3F)c2=O)cc1F [Example 180, 4-(2,6-difluorobenzyl)-2-(3-fluoro-4-((1-(2-hydroxyethyl)-3,5-dimethyl-1H-pyrazol-4-yl)oxy)phenyl)-2,4-dihydro-3H-1,2,4-triazol-3-one]	< 0.1 µM
Cc1nc(C(C)(C)O)cn1Cc1ccc(-n2ncn(Cc3c(F)cccc3F)c2=O)cc1F [Example 137, 4-(2,6-difluorobenzyl)-2-(3-fluoro-4-((4-(2-hydroxypropan-2-yl)-2-methyl-1H-imidazol-1-yl)methyl)phenyl)-2,4-dihydro-3H-1,2,4-triazol-3-one]	1 to 10 µM
Cc1ccc(C#N)n1Cc1ccc(-n2ncn(Cc3c(F)cccc3F)c2=O)cc1 [Example 206, 1-(4-(4-(2,6-difluorobenzyl)-5-oxo-4,5-dihydro-1H-1,2,4-triazol-1-yl)benzyl)-5-methyl-1H-pyrrole-2-carbonitrile]	0.1 to 1 µM
Cc1nc(CO)sc1Oc1ccc(-n2ncn(Cc3c(F)cccc3F)c2=O)cc1F [Example 156, 4-(2,6-difluorobenzyl)-2-(3-fluoro-4-((2-(hydroxymethyl)-4-methylthiazol-5-yl)oxy)phenyl)-2,4-dihydro-3H-1,2,4-triazol-3-one]	< 0.1 µM
Cc1nc(C(=O)N2CC(O)C2)sc1Oc1ccc(-n2ncn(Cc3ccccc3F)c2=O)cc1F [Example 593, 2-(3-fluoro-4-((2-(3-hydroxyazetidine-1-carbonyl)-4-methylthiazol-5-yl)oxy)phenyl)-4-(2-fluorobenzyl)-2,4-dihydro-3H-1,2,4-triazol-3-one]	< 0.1 µM

Same assay, conditions: Homo sapiens, HT-29, HT-29 necroptosis cell viability, IC50 class symbols; read-out: Activity

Compound	IC50
CCOC1CN(c2nccc(Cl)c2Oc2ccc(-n3nc(C)n(Cc4ccccc4)c3=O)cc2)C1 [Example 305, 4-benzyl-2-[4-[[4-chloro-2-(3-ethoxyazetidin-1-yl)-3-pyridyl]oxy]phenyl]-5-methyl-1,2,4-triazol-3-one]	0.1 to 1 µM
NC[C@H]1CCN1c1cc(Oc2ccc(-n3ncn(Cc4c(F)cccc4F)c3=O)cc2F)c(F)cn1 [Example 375, (R)-2-(4-((2-(2-(aminomethyl)azetidin-1-yl)-5-fluoropyridin-4-yl)oxy)-3-fluorophenyl)-4-(2,6-difluorobenzyl)-2,4-dihydro-3H-1,2,4-triazol-3-one]	< 0.1 µM
N#CC1CCN(c2cc(Oc3ccc(-n4ncn(Cc5c(F)cccc5F)c4=O)cc3)ccn2)CC1 [Example 255, 1-(4-(4-(4-(2,6-difluorobenzyl)-5-oxo-4,5-dihydro-1H-1,2,4-triazol-1-yl)phenoxy)pyridin-2-yl)piperidine-4-carbonitrile]	0.1 to 1 µM
N#Cc1cnc(Cl)cc1Oc1ccc(-n2ncn(Cc3c(F)cccc3F)c2=O)cc1F [Example 395, 6-chloro-4-(4-(4-(2,6-difluorobenzyl)-5-oxo-4,5-dihydro-1H-1,2,4-triazol-1-yl)-2-fluorophenoxy)nicotinonitrile]	1 to 10 µM
CCOC1CN(c2nccc(Oc3ccc(-n4ncn(Cc5c(F)cccc5F)c4=O)cc3)c2Cl)C1 [Example 261, 2-(4-((3-chloro-2-(3-ethoxyazetidin-1-yl)pyridin-4-yl)oxy)phenyl)-4-(2,6-difluorobenzyl)-2,4-dihydro-3H-1,2,4-triazol-3-one]	0.1 to 1 µM
O=c1n(Cc2c(F)cccc2F)cnn1-c1ccc(Oc2c(Cl)cccc2[N+](=O)[O-])cc1 [Example 434, 2-(4-(2-chloro-6-nitrophenoxy)phenyl)-4-(2,6-difluorobenzyl)-2,4-dihydro-3H-1,2,4-triazol-3-one]	< 0.1 µM
CCN(C)c1cc(Oc2ccc(-n3ncn(Cc4c(F)cccc4F)c3=O)cc2)ccn1 [Example 353, 4-(2,6-difluorobenzyl)-2-(4-((2-(ethyl(methyl)amino)pyridin-4-yl)oxy)phenyl)-2,4-dihydro-3H-1,2,4-triazol-3-one]	0.1 to 1 µM
O=c1n(Cc2c(F)cccc2F)cnn1-c1ccc(Oc2ccnc(NCC3COC3)c2)cc1 [Example 341, 4-(2,6-difluorobenzyl)-2-(4-((2-((oxetan-3-ylmethyl)amino)pyridin-4-yl)oxy)phenyl)-2,4-dihydro-3H-1,2,4-triazol-3-one]	1 to 10 µM
Cc1nc([C@H](C)O)sc1Oc1ccc(-n2ncn(Cc3c(F)cccc3F)c2=O)cc1F (single isomer, unassigned) [Example 460]	< 0.1 µM

Same assay, conditions: Homo sapiens; HT-29 cells stimulated with TNF-α (10 ng/ml), SMAC mimetic (6 μM) and zVAD-FMK (10 μM); 20 hours; CellTiter-Glo ATP luminescence; geometric mean IC50 from 10 points; read-out: Activity

Compound	IC50
Cc1nc(C(N)=O)sc1Oc1ccc(-n2nc3n(c2=O)[C@H](c2ccccc2)CC3)cc1 (single isomer, unassigned) [Example 17]	< 0.1 µM
Cc1nc(Oc2ccncc2)sc1-n1ncn(Cc2c(F)cccc2F)c1=O [Example 11, 4-(2,6-difluorobenzyl)-2-(4-methyl-2-(pyridin-4-yloxy)thiazol-5-yl)-2,4-dihydro-3H-1,2,4-triazol-3-one]	> 10 µM
Cc1nc(C(=O)N2CCOCC2)sc1Oc1ccc(-n2ncn(Cc3c(F)cccc3F)c2=O)cc1F [Example 22, 4-(2,6-difluorobenzyl)-2-(3-fluoro-4-((4-methyl-2-(morpholin-4-carbonyl)thiazol-5-yl)oxy)phenyl)-2,4-dihydro-3H-1,2,4-triazol-3-one]	< 0.1 µM
Cc1nc(N2CCOC2=O)sc1Oc1ccc(-n2ncn(Cc3c(F)cccc3F)c2=O)cc1F [Example 56, 3-(5-(4-(4-(2,6-difluorobenzyl)-5-oxo-4,5-dihydro-1H-1,2,4-triazol-1-yl)-2-fluorophenoxy)-4-methylthiazol-2-yl)oxazolidin-2-one]	< 0.1 µM
Cc1nc(C(N)=O)sc1Oc1ccc(-n2nc3n(c2=O)[C@@H](c2ccccc2)CC3)cc1F (single isomer, unassigned) [Example 15]	0.1 to 1 µM
Cc1nc(N2C[C@@H](O)[C@@H]2C)sc1Oc1ccc(-n2ncn(Cc3c(F)cccc3F)c2=O)cc1 [Example 50, 4-(2,6-difluorobenzyl)-2-(4-((2-((2S,3R)-3-hydroxy-2-methylazetidin-1-yl)-4-methylthiazol-5-yl)oxy)phenyl)-2,4-dihydro-3H-1,2,4-triazol-3-one]	< 0.1 µM
Cc1nc(N2CC3(CCOCC3)C2)sc1Oc1ccc(-n2ncn(Cc3c(F)cccc3F)c2=O)cc1 [Example 75, 4-(2,6-difluorobenzyl)-2-(4-((4-methyl-2-(7-oxa-2-azaspiro[3.5]nonan-2-yl)thiazol-5-yl)oxy)phenyl)-2,4-dihydro-3H-1,2,4-triazol-3-one]	< 0.1 µM
Cc1nc(N2CC(C)(C#N)C2)sc1Oc1ccc(-n2ncn(Cc3c(F)cccc3F)c2=O)cc1 [Example 46, 1-(5-(4-(4-(2,6-difluorobenzyl)-5-oxo-4,5-dihydro-1H-1,2,4-triazol-1-yl)phenoxy)-4-methylthiazol-2-yl)-3-methylazetidine-3-carbonitrile]	< 0.1 µM
COC(=O)c1nc(C)c(Oc2ccc(-n3nc4n(c3=O)C(c3ccccc3)CC4)cc2F)s1 (stereo not shown) [Example 34, methyl 5-(2-fluoro-4-(3-oxo-5-phenyl-6,7-dihydro-3H-pyrrolo[2,1-c][1,2,4]triazol-2(5H)-yl)phenoxy)-4-methylthiazole-2-carboxylate]	0.1 to 1 µM
